This note sets out measurements from patent publication US6358521B1, “Fermented milk nutraceuticals” (priority 1993, dated 2002).

The assay has as its system purulent wound infected with Staphylococcus aureus. Briefly: Purulent skin-facial wound model infected with Staphylococcus aureus, topical treatment. The class given is in vivo, Chinchilla rabbits. The protocol:
The effect of topical administration of a fermented milk product prepared as described above was studied using 24 Chinchilla rabbits. Standard skin-facial wounds of about 2×2.5 cm (500 sq. mm) in size were inflicted in the back area of all the rabbits; a skin graft was dissected with subcutaneous fat and fascia up to a muscular layer, wound edges containing subcutaneous muscle were crushed with Kocher's forceps. Following hemeostasis, rabbits were infected by introducing 1 ml microbial suspension containing 1.5×10^9 Staphylococcus aureus into the wound.
All animals were divided into three groups each containing eight rabbits. In group I (test), the animals were treated with the fermented milk. For comparison, rabbits of Group II were treated with Rivanol (Chinosolfabrik, Germany). Group III consisted of control, untreated animals. Treatment was initiated on the third day postinfection. The fermented milk preparations were applied locally using liberally wetted, loosely placed napkins onto the wound followed by application of an aseptic dressing. Animals of the control group were maintained under identical conditions, and were subjected to daily wound sanitation and application of aseptic dressings.
The clinical course of wound healing was controlled based on a number of criteria—nature and amount of the discharge, terms for arresting a perifocal inflammatory reaction, necrolysis terms, emergence of granulations, epithelization, terms of a wound healing. At the same time, the surface area of the wound was measured; cytological, morphological studies of the wound edge and bottom were carried out; and bacteriological studies of wound discharge (prior and during the treatment) were performed. To determine the presence of microbes in sections, the preparations were Gram-Weigart stained. Bacteriological studies were carried out with regard to a rate and duration of Staphylococcus dissemination from a destruction focus. The following quantitative characteristics of dissemination were used: up to 25 colonies on a Petri dish=limited growth; up to 70 colonies=poor growth; up to 200 colonies=abundant growth; and more than 200 colonies=complete growth.
Material from a purulent wound was removed with a calcined and quenched standard loop, 3 mm in diameter, emulsified in 1 ml saline and then plated by 0.05 ml onto Petri dishes of plain agar. The plated material was placed in an incubator at 37° C. for 18-20 hours followed by Staphylococcus aureus colony count.

Setting [1] is: local application, treatment from third day postinfection.

As to `CCOc1ccc2nc3cc(N)ccc3c(N)c2c1` [Rivanol], under setting [1], the “Edge epithelization advent” value is on record as 15.1 days, the “Full wound filling with granules” value came to 18.9 days and the “Full wound healing” value was 24.7 days. Also, the “First granulation advent” value (local application, treatment from third day postinfection, 8 rabbits per group) is reported as 7.0 days. Under “local application, treatment from third day postinfection, column after first granulation advent”, the “Full wound healing, days (first column of that name)” value worked out at 13.5 days. Moreover, the “Nature of the cicatrix” value (study of cicatrices after healing) is given as “a more coarse cicatricial tissue prevailed”.
